Laboratory results: PubChem BioAssay (NCI)
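Test compounds were applied to cells in 96-well plates for 48 hours at 5 doses. Abbreviation: GI50, concentration required for 50% inhibition of growth. Definition used: TGI = concentration required for complete inhibition of growth.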

Experiments:
Assay in all cases: NCI anticancer screen, dose series, 48 h
OVCAR-8 ovarian = system: OVCAR-8 ovarian
SNB-19 CNS = system: SNB-19 CNS
LOX IMVI melanoma = system: LOX IMVI melanoma
HCC-2998 colon = system: HCC-2998 colon
BT-549 breast = system: BT-549 breast
OVCAR-5 ovarian = system: OVCAR-5 ovarian
IGROV1 ovarian = system: IGROV1 ovarian
SW-620 colon = system: SW-620 colon
SK-MEL-2 melanoma = system: SK-MEL-2 melanoma
SR leukemia = system: SR leukemia
OVCAR-3 ovarian = system: OVCAR-3 ovarian
SK-MEL-28 melanoma = system: SK-MEL-28 melanoma
HCT-15 colon = system: HCT-15 colon
NCI-H23 lung = system: NCI-H23 lung
NCI-H460 lung = system: NCI-H460 lung
UACC-62 melanoma = system: UACC-62 melanoma
HL-60(TB) leukemia = system: HL-60(TB) leukemia
HCT-116 colon = system: HCT-116 colon
CAKI-1 renal = system: CAKI-1 renal
HT29 colon = system: HT29 colon
MCF7 breast = system: MCF7 breast
MDA-MB-231 breast = system: MDA-MB-231 breast
UACC-257 melanoma = system: UACC-257 melanoma
M14 melanoma = system: M14 melanoma
SNB-75 CNS = system: SNB-75 CNS
NCI/ADR-RES ovarian = system: NCI/ADR-RES ovarian
KM12 colon = system: KM12 colon
T-47D breast = system: T-47D breast
SF-295 CNS = system: SF-295 CNS
K-562 leukemia = system: K-562 leukemia
SF-539 CNS = system: SF-539 CNS
UO-31 renal = system: UO-31 renal
MALME-3M melanoma = system: MALME-3M melanoma
HS 578T breast = system: HS 578T breast
TK-10 renal = system: TK-10 renal
PC-3 prostate = system: PC-3 prostate
RXF 393 renal = system: RXF 393 renal
MOLT-4 leukemia = system: MOLT-4 leukemia
U251 CNS = system: U251 CNS
ACHN renal = system: ACHN renal
786-0 renal = system: 786-0 renal
A549 NSCLC = system: A549 NSCLC
NCI-H226 lung = system: NCI-H226 lung
HOP-92 NSCLC = system: HOP-92 NSCLC
HOP-62 NSCLC = system: HOP-62 NSCLC
SF-268 CNS = system: SF-268 CNS
NCI-H522 lung = system: NCI-H522 lung
SN12C renal = system: SN12C renal
DU-145 prostate = system: DU-145 prostate
SK-MEL-5 melanoma = system: SK-MEL-5 melanoma
RPMI-8226 leukemia = system: RPMI-8226 leukemia
OVCAR-4 ovarian = system: OVCAR-4 ovarian
A498 renal = system: A498 renal
EKVX NSCLC = system: EKVX NSCLC
SK-OV-3 ovarian = system: SK-OV-3 ovarian
COLO 205 colon = system: COLO 205 colon
CCRF-CEM leukemia = system: CCRF-CEM leukemia

Question: What does the source list for CCOC(=O)Nn1c(C)nnc1CC#N?
Answer: TGI (OVCAR-8 ovarian): > 100 µM; TGI (SNB-19 CNS): > 100 µM; TGI (LOX IMVI melanoma): > 100 µM; TGI (HCC-2998 colon): > 100 µM; TGI (BT-549 breast): > 100 µM; TGI (OVCAR-5 ovarian): > 100 µM; TGI (IGROV1 ovarian): > 100 µM; TGI (SW-620 colon): > 100 µM; TGI (SK-MEL-2 melanoma): > 100 µM; TGI (SR leukemia): > 100 µM; TGI (OVCAR-3 ovarian): > 100 µM; TGI (SK-MEL-28 melanoma): > 100 µM; TGI (HCT-15 colon): > 100 µM; TGI (NCI-H23 lung): > 100 µM; TGI (NCI-H460 lung): > 100 µM; TGI (UACC-62 melanoma): > 100 µM; TGI (HL-60(TB) leukemia): > 100 µM; TGI (HCT-116 colon): > 100 µM; TGI (CAKI-1 renal): > 100 µM; TGI (HT29 colon): > 100 µM; TGI (MCF7 breast): > 100 µM; TGI (MDA-MB-231 breast): > 100 µM; TGI (UACC-257 melanoma): > 100 µM; TGI (M14 melanoma): > 100 µM; TGI (SNB-75 CNS): > 100 µM; TGI (NCI/ADR-RES ovarian): > 100 µM; TGI (KM12 colon): > 100 µM; TGI (T-47D breast): > 100 µM; TGI (SF-295 CNS): > 100 µM; TGI (K-562 leukemia): > 100 µM; TGI (SF-539 CNS): > 100 µM; TGI (UO-31 renal): > 100 µM; TGI (MALME-3M melanoma): > 100 µM; TGI (HS 578T breast): > 100 µM; TGI (TK-10 renal): > 100 µM; TGI (PC-3 prostate): > 100 µM; TGI (RXF 393 renal): > 100 µM; TGI (MOLT-4 leukemia): > 100 µM; TGI (U251 CNS): > 100 µM; TGI (ACHN renal): > 100 µM; TGI (786-0 renal): > 100 µM; TGI (A549 NSCLC): > 100 µM; TGI (NCI-H226 lung): > 100 µM; TGI (HOP-92 NSCLC): > 100 µM; TGI (HOP-62 NSCLC): > 100 µM; TGI (SF-268 CNS): > 100 µM; TGI (NCI-H522 lung): > 100 µM; TGI (SN12C renal): > 100 µM; TGI (DU-145 prostate): > 100 µM; TGI (SK-MEL-5 melanoma): > 100 µM; TGI (RPMI-8226 leukemia): > 100 µM

Question: Which results are given for COc1cc2ncn(-c3cc(O[C@H](C)c4ccccc4Cl)c(C(N)=O)s3)c2cc1OC?
Answer: GI50 (OVCAR-8 ovarian): 0.0114 µM; TGI (OVCAR-8 ovarian): 11.8 µM; GI50 (SNB-19 CNS): 0.0225 µM; TGI (SNB-19 CNS): > 25 µM; GI50 (LOX IMVI melanoma): 0.0105 µM; TGI (LOX IMVI melanoma): 4.37 µM; GI50 (HCC-2998 colon): 0.0148 µM; TGI (HCC-2998 colon): 6.18 µM; GI50 (BT-549 breast): 0.0888 µM; TGI (BT-549 breast): 4.44 µM; GI50 (OVCAR-5 ovarian): 0.0139 µM; TGI (OVCAR-5 ovarian): > 23.8 µM; GI50 (IGROV1 ovarian): 0.0197 µM; TGI (IGROV1 ovarian): 12.9 µM; GI50 (SW-620 colon): 0.0055 µM; TGI (SW-620 colon): 5.57 µM; GI50 (SK-MEL-2 melanoma): 0.00679 µM; TGI (SK-MEL-2 melanoma): 5.02 µM; GI50 (SR leukemia): 0.00792 µM; TGI (SR leukemia): > 6.4 µM; GI50 (OVCAR-3 ovarian): 0.00664 µM; TGI (OVCAR-3 ovarian): 2.15 µM; GI50 (OVCAR-4 ovarian): 3.67 µM; TGI (OVCAR-4 ovarian): > 25 µM; GI50 (HCT-15 colon): 0.0107 µM; TGI (HCT-15 colon): > 25 µM; GI50 (NCI-H23 lung): 0.01 µM; TGI (NCI-H23 lung): 4.39 µM; GI50 (NCI-H460 lung): 0.00955 µM; TGI (NCI-H460 lung): 1.24 µM; GI50 (UACC-62 melanoma): 0.154 µM; TGI (UACC-62 melanoma): 7.43 µM; GI50 (HL-60(TB) leukemia): 0.00681 µM; TGI (HL-60(TB) leukemia): 3.89 µM; GI50 (HCT-116 colon): 0.0102 µM; TGI (HCT-116 colon): 6.44 µM; GI50 (CAKI-1 renal): 0.0999 µM; TGI (CAKI-1 renal): 20.8 µM; GI50 (HT29 colon): 0.00432 µM; TGI (HT29 colon): 4.26 µM; GI50 (MCF7 breast): 0.00431 µM; TGI (MCF7 breast): 5.6 µM; GI50 (MDA-MB-231 breast): 0.021 µM; TGI (MDA-MB-231 breast): > 25 µM; GI50 (UACC-257 melanoma): 2.93 µM; TGI (UACC-257 melanoma): 15.4 µM; GI50 (SNB-75 CNS): 0.0238 µM; TGI (SNB-75 CNS): 3.59 µM; GI50 (NCI/ADR-RES ovarian): 0.00812 µM; TGI (NCI/ADR-RES ovarian): 8.72 µM; GI50 (KM12 colon): 0.00728 µM; TGI (KM12 colon): 3.86 µM; GI50 (T-47D breast): 0.146 µM; TGI (T-47D breast): 7.76 µM; GI50 (SF-295 CNS): 0.0127 µM; TGI (SF-295 CNS): > 25 µM; GI50 (A498 renal): 0.0121 µM; TGI (A498 renal): 0.194 µM; GI50 (K-562 leukemia): 0.00874 µM; TGI (K-562 leukemia): > 25 µM; GI50 (EKVX NSCLC): 0.0872 µM; TGI (EKVX NSCLC): > 25 µM; GI50 (SF-539 CNS): 0.0109 µM; TGI (SF-539 CNS): 2.74 µM; GI50 (UO-31 renal): 0.482 µM; TGI (UO-31 renal): 12.1 µM; GI50 (MALME-3M melanoma): 1.71 µM; TGI (MALME-3M melanoma): 12.3 µM; GI50 (HS 578T breast): 0.0652 µM; TGI (HS 578T breast): 0.804 µM; GI50 (TK-10 renal): 0.414 µM; TGI (TK-10 renal): 4.45 µM; GI50 (SK-OV-3 ovarian): 0.0097 µM; TGI (SK-OV-3 ovarian): 12.7 µM; GI50 (PC-3 prostate): 0.0141 µM; TGI (PC-3 prostate): > 25 µM; GI50 (RXF 393 renal): 0.00947 µM; TGI (RXF 393 renal): 3.53 µM; GI50 (COLO 205 colon): 0.00544 µM; TGI (COLO 205 colon): 4.58 µM; GI50 (MOLT-4 leukemia): 0.00979 µM; TGI (MOLT-4 leukemia): 3.76 µM; GI50 (U251 CNS): 0.0161 µM; TGI (U251 CNS): > 25 µM; GI50 (ACHN renal): 1.04 µM; TGI (ACHN renal): > 25 µM; GI50 (786-0 renal): 0.0412 µM; TGI (786-0 renal): 3.11 µM; GI50 (A549 NSCLC): 0.014 µM; TGI (A549 NSCLC): > 14.4 µM; GI50 (NCI-H226 lung): 0.228 µM; TGI (NCI-H226 lung): 6.99 µM; GI50 (HOP-92 NSCLC): 0.489 µM; TGI (HOP-92 NSCLC): 7.47 µM; GI50 (HOP-62 NSCLC): 0.0158 µM; TGI (HOP-62 NSCLC): > 25 µM; GI50 (SF-268 CNS): 0.016 µM; TGI (SF-268 CNS): 20.1 µM; GI50 (NCI-H522 lung): 0.00656 µM; TGI (NCI-H522 lung): 2.84 µM; GI50 (SN12C renal): 0.0692 µM; TGI (SN12C renal): > 21.5 µM; GI50 (SK-MEL-5 melanoma): 0.00912 µM; TGI (SK-MEL-5 melanoma): 1.08 µM; GI50 (RPMI-8226 leukemia): 0.0102 µM; TGI (RPMI-8226 leukemia): 3.99 µM; GI50 (CCRF-CEM leukemia): 0.0025 µM; TGI (CCRF-CEM leukemia): 13.1 µM
